The NIST ThermoML archive (doi:10.1021/je7002786)
Numbers after ± are expanded uncertainties.

Legend:
[1] = molar heat capacity at constant pressure; conditions: 101.33 kPa, Liquid
[2] = DTA

## CCCCn1cc[n+](C)c1.COS(=O)(=O)[O-] [1-butyl-3-methylimidazolium methyl sulfate]
[1]; 283.1 K
  molar heat capacity at constant pressure: 226.29 ± 91 J/K/mol
[1]; 293.15 K
  molar heat capacity at constant pressure: 246.56 ± 99 J/K/mol
[1]; 303.15 K
  molar heat capacity at constant pressure: 266.84 ± 110 J/K/mol
[1]; 313.15 K
  molar heat capacity at constant pressure: 287.11 ± 120 J/K/mol
[1]; 323.15 K
  molar heat capacity at constant pressure: 307.39 ± 120 J/K/mol
[1]; 333.15 K
  molar heat capacity at constant pressure: 327.66 ± 130 J/K/mol
[1]; 343.15 K
  molar heat capacity at constant pressure: 347.94 ± 140 J/K/mol
[1]; 353.15 K
  molar heat capacity at constant pressure: 368.22 ± 150 J/K/mol
[1]; 363.15 K
  molar heat capacity at constant pressure: 388.49 ± 160 J/K/mol
[1]; 373.1 K
  molar heat capacity at constant pressure: 408.77 ± 160 J/K/mol
[2]; Crystal
  Normal melting temperature: -4.10 ± 1 °C
[2]
  Glass transition temperature: -91.90 ± 3 °C

## CCOS(=O)(=O)[O-].CCn1cc[n+](C)c1 [1-ethyl-3-methylimidazolium ethyl sulfate]
[1]; 283.1 K, Small sample (50 mg) DSC
  molar heat capacity at constant pressure: 387.04 ± 160 J/K/mol
[1]; 293.15 K, Small sample (50 mg) DSC
  molar heat capacity at constant pressure: 409.73 ± 160 J/K/mol
[1]; 303.15 K, Small sample (50 mg) DSC
  molar heat capacity at constant pressure: 432.41 ± 170 J/K/mol
[1]; 313.15 K, Small sample (50 mg) DSC
  molar heat capacity at constant pressure: 455.09 ± 180 J/K/mol
[1]; 323.15 K, Small sample (50 mg) DSC
  molar heat capacity at constant pressure: 477.78 ± 190 J/K/mol
[1]; 333.15 K, Small sample (50 mg) DSC
  molar heat capacity at constant pressure: 500.46 ± 200 J/K/mol
[1]; 343.15 K, Small sample (50 mg) DSC
  molar heat capacity at constant pressure: 523.15 ± 210 J/K/mol
[1]; 353.15 K, Small sample (50 mg) DSC
  molar heat capacity at constant pressure: 545.83 ± 220 J/K/mol
[1]; 363.15 K, Small sample (50 mg) DSC
  molar heat capacity at constant pressure: 568.51 ± 230 J/K/mol
[1]; 373.1 K, Small sample (50 mg) DSC
  molar heat capacity at constant pressure: 591.2 ± 240 J/K/mol
[2]
  Glass transition temperature: -78.40 ± 3 °C
